IC50 data for 67 compounds are collected here from patent publication US10183949B2, “Pyrimidinone derivative having autotaxin-inhibitory activity” (The University of Tokyo, priority 2014, dated 2019).

The target of one experiment is T1, Human autotaxin enzyme (Homo sapiens, UniProt Q13822).
T1 construct: purchased R&D System
As to the kind of experiment: Evaluation of autotaxin inhibitor, 18:0 Lyso PC / choline assay (Test Example 2). It counts as biochemical. To be noted: autotaxin inhibition, IC50 class; read-out: Inhibitor activity. The method, boiled down:
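Inhibition derived from concentration-dependent curves, scaled between no-compound (0%) and no-enzyme (100%) wells. Choline generated from 18:0 Lyso PC (200 μM stock) by human enzyme over 2 h at room temperature (Tris-HCl pH 7.5, NaCl, MgCl2, Triton X-100) read as resorufin fluorescence, 531/598 nm, after choline oxidase-peroxidase coupling.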
As for `N#CC1(NC(=O)Cn2c(CCCC(F)(F)F)nc(N3CCC(C(F)(F)F)CC3)c(F)c2=O)CC1` [Compound I-0241], the IC50 was ≥ 1000 nM.
The same measure, in the same setting: the figure for `N#CC1(NC(=O)Cn2c(OCCC(F)(F)F)nc(-c3ccc(Cl)cc3)cc2=O)CC1` [Compound I-0242] is 100 to 1000 nM; for `CSc1nc(-c2ccc(Cl)cc2NC(C)=O)cc(=O)n1CC(=O)NC1(C#N)CC1` [Compound I-0243] it is 10 to 100 nM; for `CC(=O)Nc1cc(Cl)ccc1-c1cc(=O)n(CC(=O)OC(C)(C)C)cn1` [Compound I-0244] it is 10 to 100 nM.
In the case of `CC(=O)Nc1cc(Cl)ccc1-c1cc(=O)n(CC(=O)OC(C)(C)C)c(C)n1` [Compound I-0245], the IC50 is < 10 nM.
On the same count and under the same terms, the figure for `CC(=O)Nc1cc(Cl)ccc1-c1cc(=O)n(CC(=O)O)cn1` [Compound I-0246] is ≥ 1000 nM; for `CC(=O)Nc1cc(Cl)ccc1-c1cc(=O)n(CC(=O)O)c(C)n1` [Compound I-0247] it is ≥ 1000 nM.
Take `CC(=O)Nc1cc(Cl)ccc1-c1cc(=O)n(CC(=O)NC2(C#N)CC2)c(C)n1` [Compound I-0248]: the IC50 lay in the range of 10 to 100 nM.
Still for that read-out and setting: the figure for `CC(=O)Nc1cc(Cl)ccc1-c1cc(=O)n(CC(=O)NC2(C#N)CC2)cn1` [Compound I-0249] is 100 to 1000 nM; for `CSc1nc(-c2ccc(Cl)cc2NC(C)=O)cc(=O)n1CC(=O)NCC(C)(C)O` [Compound I-0250] it is 10 to 100 nM; for `CSc1nc(-c2ccc(Cl)cc2NC(C)=O)cc(=O)n1CC(=O)NC(C)(C)C` [Compound I-0251] it is 10 to 100 nM.
The same measure, in the same setting: the figure for `CSc1nc(-c2ccc(Cl)cc2NC(C)=O)cc(=O)n1CC(=O)NC(C)(C)CO` [Compound I-0252] is 10 to 100 nM; for `COC(=O)Cn1c(CCCC(F)(F)F)nc(-c2ccc(C(F)(F)F)nc2)cc1=O` [Compound I-0253] it is 100 to 1000 nM.
As to `COC(=O)Cn1c(CCCC(F)(F)F)nc(-c2ccc(C(F)(F)F)cc2)cc1=O` [Compound I-0254], the IC50 was 10 to 100 nM.
Still for that read-out and setting: the figure for `O=C(O)Cn1c(CCCC(F)(F)F)nc(-c2ccc(C(F)(F)F)cc2)cc1=O` [Compound I-0255] is ≥ 1000 nM; for `CCc1nc(-c2ccc(Cl)cc2NC(C)=O)cc(=O)n1CC(=O)NC1(C#N)CC1` [Compound I-0256] it is 10 to 100 nM.
Still for that read-out and setting: the result for `N#CC1(NC(=O)Cn2c3nc(cc2=O)-c2ccc(Cl)cc2NC(=O)/C=C/CCO3)CC1` [Compound I-0257] reads 10 to 100 nM.

The experiment is the same for the next values; noted with them: human autotaxin enzyme, 18:0 Lyso PC substrate, choline assay, room temperature 2 hours; read-out: Inhibitor activity (IC50).
Take `Cc1nc(-c2ccc(C#N)cc2NC(=O)C2CC2)cc(=O)n1CC(=O)O` [Compound I-0258]: the IC50 was ≥ 1000 nM.
Consider `Cc1nc(-c2ccc(Cl)cc2NC(=O)C2CC2)cc(=O)n1CC(=O)O` [Compound I-0259], for which the IC50 was ≥ 1000 nM.
On the same count and under the same terms, the figure for `Cc1nc(-c2ccc(C#N)cc2NC(=O)C(C)(C)C)cc(=O)n1CC(=O)O` [Compound I-0260] is ≥ 1000 nM; for `Cc1nc(C2=CCC(C(F)(F)F)CC2)cc(=O)n1CC(=O)NC1(C#N)CC1` (stereo not shown) [Compound I-0261] it is 100 to 1000 nM; for `Cc1nc(C2=CCC(C(F)(F)F)CC2)cc(=O)n1Cc1cccc(C(=O)O)c1` (stereo not shown) [Compound I-0262] it is 100 to 1000 nM.
The same measure, in the same setting: the figure for `COC(=O)Nc1cc(C#N)ccc1-c1cc(=O)n(CC(=O)OC(C)(C)C)c(C)n1` [Compound I-0263] is < 10 nM; for `O=C(O)Cn1c(CCCC(F)(F)F)nc(-c2ccc(Cl)cc2CO)cc1=O` [Compound I-0264] it is ≥ 1000 nM; for `COC(=O)Nc1cc(Cl)ccc1-c1cc(=O)n(CC(=O)NC(C)(C)C)c(C)n1` [Compound I-0265] it is 10 to 100 nM.
Still for that read-out and setting: the result for `COC(=O)Nc1cc(Cl)ccc1-c1cc(=O)n(CC(=O)OC(C)(C)C)c(C)n1` [Compound I-0266] reads < 10 nM; that for `CC(=O)Nc1cc(Cl)ccc1-c1cc(=O)n(Cc2cccc(C(=O)O)c2)c(C)n1` [Compound I-0267], < 10 nM.
On to `Cc1nc(C2=CCC(C(F)(F)F)CC2)cc(=O)n1CC(=O)NCC1(CO)COC1` (stereo not shown) [Compound I-0268], for which the IC50 is ≥ 1000 nM.
Same read-out and setting: the result for `COC(=O)Nc1cc(Cl)ccc1-c1cc(=O)n(CC(=O)N(C)C(C)(C)C)c(C)n1` [Compound I-0269] reads 10 to 100 nM.
Same read-out and setting: the figure for `Cc1nc(-c2ccc(F)cc2NC(=O)C2CC2)cc(=O)n1Cc1cccc(C(=O)O)c1` [Compound I-0270] is 10 to 100 nM; for `Cc1nc(-c2ccc(C#N)cc2NC(=O)C2CC2)cc(=O)n1Cc1cccc(C(=O)O)c1` [Compound I-0271] it is < 10 nM; for `COC(=O)Nc1cc(Cl)ccc1-c1cc(=O)n(CC(=O)N2CCCC2(C)C)c(C)n1` [Compound I-0272] it is 10 to 100 nM.
The same measure, in the same setting: the figure for `Cc1nc(-c2ccc(Cl)cc2NC(=O)C(C)(C)C)cc(=O)n1CC(=O)NC(C)(C)C` [Compound I-0273] is 10 to 100 nM.
On to `COC(=O)Nc1cc(Cl)ccc1-c1cc(=O)n(CC(=O)N(C)C2(C)COC2)c(C)n1` [Compound I-0274], for which the IC50 was in the range of 10 to 100 nM.
Consider `COC(=O)Nc1cc(Cl)ccc1-c1cc(=O)n(CC(=O)NCC2(CO)CC2)c(C)n1` [Compound I-0275], for which the IC50 was 10 to 100 nM.
Still for that read-out and setting: the figure for `COC(=O)Nc1cc(Cl)ccc1-c1cc(=O)n(CC(=O)N(C(C)C)C(C)C)c(C)n1` [Compound I-0276] is 10 to 100 nM.
In the case of `COC(=O)Nc1cc(Cl)ccc1-c1cc(=O)n(CC(=O)N(C)C(C)(C)CO)c(C)n1` [Compound I-0277], the IC50 lay in the range of 10 to 100 nM.
Same read-out and setting: the result for `Cc1nc(-c2ccc(F)cc2NC(=O)C(C)(C)C)cc(=O)n1Cc1cccc(C(=O)O)c1` [Compound I-0278] reads 10 to 100 nM.
Consider `Cc1nc(-c2ccc(Cl)cc2NC(=O)C2CC2)cc(=O)n1Cc1cccc(C(=O)O)c1` [Compound I-0279], for which the IC50 was < 10 nM.
Still for that read-out and setting: the figure for `O=C(O)c1ccc(Cn2c(CCCC(F)(F)F)nc(-c3ccc(Cl)cc3)cc2=O)o1` [Compound I-0280] is 10 to 100 nM; for `Cc1nc(-c2ccc(F)cc2NC(=O)C2CC2)cc(=O)n1CC(=O)NCC1(CO)COC1` [Compound I-0281] it is 100 to 1000 nM.
Still for that read-out and setting: the figure for `Cc1nc(-c2ccc(C#N)cc2NC(=O)C(C)(C)C)cc(=O)n1Cc1cccc(C(=O)O)c1` [Compound I-0282] is < 10 nM.
Still for that read-out and setting: the figure for `CC(C)(C)OC(=O)NCn1c(CCCC(F)(F)F)nc(-c2ccc(Cl)cc2)cc1=O` [Compound I-0283] is 100 to 1000 nM.
Consider `CC(C)(C)OC(=O)Cn1c(CCCC(F)(F)F)nc(-c2ccc(Cl)cc2F)cc1=O` [Compound I-0284], for which the IC50 lay within 10 to 100 nM.
With `COC(=O)Nc1cc(Cl)ccc1-c1cc(=O)n(CC(=O)N2CCOCC2(C)C)c(C)n1` [Compound I-0285], the IC50 lay within 10 to 100 nM.
On the same count and under the same terms, the result for `COC(=O)Nc1cc(Cl)ccc1-c1cc(=O)n(CC(=O)NCC2(CO)COC2)c(C)n1` [Compound I-0286] reads 10 to 100 nM.
On the same count and under the same terms, the result for `Cc1nc(-c2ccc(C#N)cc2NC(=O)C2CC2)cc(=O)n1CC(=O)NCC1(CO)COC1` [Compound I-0287] reads 10 to 100 nM.
Still for that read-out and setting: the result for `O=C(O)c1cncc(Cn2c(CCCC(F)(F)F)nc(-c3ccc(Cl)cc3)cc2=O)c1` [Compound I-0288] reads 10 to 100 nM; that for `O=C(O)c1cccc(Cn2c(CCCC(F)(F)F)nc(-c3ccc(Cl)cc3)cc2=O)n1` [Compound I-0289], 100 to 1000 nM.
Regarding `Cc1nc(-c2ccc(Cl)cc2NC(=O)C(C)(C)C)cc(=O)n1Cc1cccc(C(=O)O)c1` [Compound I-0290], the IC50 was < 10 nM.
For the compound `COC(=O)c1ccc(Cn2c(CCCC(F)(F)F)nc(-c3ccc(Cl)cc3)cc2=O)o1` [Compound I-0291], the IC50 was in the range of 10 to 100 nM.
Same read-out and setting: the result for `O=C(O)c1cc(Cn2c(CCCC(F)(F)F)nc(-c3ccc(Cl)cc3)cc2=O)cs1` [Compound I-0292] reads 10 to 100 nM; that for `O=C(O)c1ccc(Cn2c(CCCC(F)(F)F)nc(-c3ccc(Cl)cc3)cc2=O)s1` [Compound I-0293], 10 to 100 nM.
Consider `O=C(O)c1nc(Cn2c(CCCC(F)(F)F)nc(-c3ccc(Cl)cc3)cc2=O)cs1` [Compound I-0294], for which the IC50 was in the range of 10 to 100 nM.
Consider `CSc1nc(-c2ccc(Cl)cc2NC(=O)C2CC2)cc(=O)n1CC(=O)NC1(C#N)CC1` [Compound I-0295], for which the IC50 is 10 to 100 nM.
Still for that read-out and setting: the figure for `CC(C)(C)OC(=O)Cn1c(CCCC(F)(F)F)nc(-c2ccc(Cl)cc2C=O)cc1=O` [Compound I-0296] is 100 to 1000 nM; for `CN(CC#N)C(=O)Cn1c(CCCC(F)(F)F)nc(-c2ccc(C(F)(F)F)cc2)cc1=O` [Compound I-0297] it is 10 to 100 nM; for `Cc1nc(-c2ccc(F)cc2NC(=O)C(C)(C)C)cc(=O)n1CC(=O)NCC1(CO)COC1` [Compound I-0298] it is 100 to 1000 nM.
The same measure, in the same setting: the figure for `CC(C)(C)OC(=O)Cn1c(CCCC(F)(F)F)nc(-c2ccc(Cl)cc2CO)cc1=O` [Compound I-0299] is < 10 nM; for `Cc1nc(-c2ccc(Cl)cc2NC(=O)C2CC2)cc(=O)n1CC(=O)NCC1(CO)COC1` [Compound I-0300] it is 10 to 100 nM; for `Cc1nc(-c2ccc(Cl)cc2NC(=O)C(C)(C)C)cc(=O)n1CC(=O)N1CCC(O)CC1` [Compound I-0301] it is 10 to 100 nM.
The same measure, in the same setting: the figure for `COC(=O)Nc1cc(Cl)ccc1-c1cc(=O)n(CC(=O)N(C)C2(CO)CCCC2)c(C)n1` [Compound I-0302] is 10 to 100 nM; for `CC(O)CNC(=O)Cn1c(CCCC(F)(F)F)nc(-c2ccc(C(F)(F)F)cc2)cc1=O` (stereo not shown) [Compound I-0303] it is 10 to 100 nM.
As for `CC(C)(C)OC(=O)Cn1c(CCCC(F)(F)F)nc(-c2ccc(C(F)(F)F)nc2)cc1=O` [Compound I-0304], the IC50 was in the range of 10 to 100 nM.
The same measure, in the same setting: the figure for `CN(CCO)C(=O)Cn1c(CCCC(F)(F)F)nc(-c2ccc(C(F)(F)F)cc2)cc1=O` [Compound I-0305] is 10 to 100 nM.
Take `COC(=O)c1cccc(Cn2c(CCCC(F)(F)F)nc(-c3ccc(Cl)cc3)cc2=O)n1` [Compound I-0306]: the IC50 lay in the range of 10 to 100 nM.
On the same count and under the same terms, the figure for `COC(=O)c1cncc(Cn2c(CCCC(F)(F)F)nc(-c3ccc(Cl)cc3)cc2=O)c1` [Compound I-0307] is 100 to 1000 nM.
